# Where two headings read alike, the source gives them in different places.
# Assays:
# MCF-7 cells [1] = assay: LDH cytotoxicity test; conditions: 24 h, up to 10^−4 M
# Experimental: Cytotoxicity was assessed by lactate dehydrogenase (LDH) release. For LDH measurement, Pierce LDH Cytotoxicity Assay Kit (Thermo Scientific, Rockford, USA) was used. MCF-7 cells were seeded at 2.8×10^5 in a transparent 96-well plate, and corner cells of the plate were filled with PBS to prevent the edge effect. SF medium containing DMEM without phenol red, 1% charcoal-stripped FBS, and 4 mM L-glutamine were used for this assay. Plates were incubated for 24 h, and then the cells were treated with test compounds at concentrations ranging from 10^−14 to 10^−4 M or vehicle for another 24 h. On day 3, culture supernatant was collected in a separate 96-well plate, and the assay was continued according to the manufacturer’s instructions. Final absorbance was measured with the microplate reader at 490 and 680 nm. […] Vehicle control was 0.1% EtOH or DMSO. All the exposures were in triplicate, and the experiment was carried out twice.
# MCF-7 cells [2] = assay: MCF-7 cell proliferation assay (MTT reduction); format: cell-based, human
# Experimental: MCF-7 cell line which is sensitive to estrogen (ERα^+) was kindly provided by Dr. Sari Tojkander (Department of Veterinary Biosciences, Faculty of Veterinary Medicine, University of Helsinki). Cells were usually grown in T25 or T75 flasks containing DMEM with or without phenol red and supplemented with 7–10% FBS and 4 mM L-glutamine at 37°C in 5% CO2/95% humidified atmosphere. In order to eliminate the disturbing effect of hormones usually present in FBS, cell culture medium supplemented with commercially available charcoal-stripped FBS and 4 mM L-glutamine (SF medium) was used for experiments.
# The effect of EEDCs on the proliferation of MCF-7 cells was assessed as previously described by measuring the capacity of the cells in each well to reduce MTT reagent (Van Meeuwen et al. [2007]). Approximately 5000 cells/200 μL of SF medium containing DMEM without phenol red, 5% charcoal-stripped FBS, and 4 mM L-glutamine were seeded per well in a 96-well cell culture plate. On day 2, cells were treated with the SF medium containing test compounds or vehicle. The final concentration of the solvents DMSO and EtOH was lower than 0.1%. On day 5, the SF medium containing test compounds or vehicle were refreshed. On day 8, cells were washed with PBS twice and then incubated with the SF medium containing 1 mg/mL MTT reagent for 1 h. The ability of MCF-7 cells to reduce MTT was measured at the reference wavelength of 595 nm using a microplate reader (Multiskan Ascent, Thermo Fisher Scientific). All the exposures were in triplicate.
# The dose-response curves of test samples were plotted against logarithmic-transformed concentrations.
# S. cerevisiae BMA64/luc = conditions: values higher than 2 are considered toxic
# Experimental: (§1) Yeast bioluminescent assay was performed as previously described (Omoruyi and Pohjanvirta [2018]). Two recombinant yeasts, Saccharomyces cerevisiae BMAEREluc/ERα and Saccharomyces cerevisiae BMA64/luc, were kindly provided by Dr. Johanna Rajasärkkä, Department of Food and Environmental Sciences, Faculty of Agriculture and Forestry, University of Helsinki. In the BMAEREluc/ERα, human ERα is expressed. After estrogen-like chemicals bind to ERα, the dimerized receptor binds to a specific DNA sequence called estrogen response element (ERE), in the promotor region of the luc reporter gene, inducing its expression. In BMA64/luc, the luciferase is expressed constitutively, and this strain can be used for the evaluation of cytotoxicity of test compounds.
# Both strains were revived from glycerol stock solution on agar and broth forms of synthetic complete medium supplemented with the required amino acids. After the absence of contamination was confirmed by observing single colonies’ morphology on agar plate, approximately 10 μL of cultured yeasts in broth was transferred to 4 mL of synthetic defined (SD) medium supplemented with the required amino acids. The culture was incubated at 30°C on a shaker incubator (200 rpm). After 24-h incubation, the culture was diluted with SD broth to reach the optimal density (OD600) of 0.4 CFU/mL. Subsequently, the culture was incubated in the same incubation condition until the OD600 reached 0.6–0.7 CFU/mL.
# (§2) Next, 90 μL of cultured yeasts containing 1:20 luciferin solution (0.042 g luciferin dissolved in 9.75 mL of 0.2 M trisodium citrate, and 5.525 mL of 0.2 M citrate, pH 5) was pipetted into every well of a white 96-well flat-bottom plate, and 10 μL of test compounds in a defined concentration range (diluted in 5% EtOH) were added. The plate was incubated at 30°C for approximately 2.5 h, and was then shaken briefly. The luminescence measurement was performed with Luminoskan Ascent microplate luminometer (Thermo Labsystems) using the recommended settings as follows: 1000 ms integration time, single measurement mode, shaking at 60 rpm for 5 s prior to measurement.
# Each concentration of test compounds and controls in the assay was tested in triplicate, and the experiment was performed twice.
# * The Correction Factor is the luminescence of the strain BMA64/luc with blank solvent divided by the luminescence of the control strain with the sample. Values higher than 2 are considered toxic (Leskinen et al. 2005).
# * The Correction Factor is the luminescence of the strain BMA64/luc with blank solvent divided by the luminescence of the control strain with the sample. Values higher than 2 are considered toxic (Leskinen et al. 2005). […] Each experiment was performed in triplicate.
# human ERα = target: T1, human ERα (Homo sapiens, UniProt P03372); assay: Yeast bioluminescent assay, S. cerevisiae BMAEREluc/ERα (ERE-luc reporter); format: cell-based; conditions: negative control, Fig. 1a
# T1 construct: expressed in transfected cells; host or cells: Saccharomyces cerevisiae BMAEREluc/ERα (recombinant yeast, gift of Dr. Johanna Rajasärkkä, University of Helsinki)
# T1 sequence (P03372 1-595): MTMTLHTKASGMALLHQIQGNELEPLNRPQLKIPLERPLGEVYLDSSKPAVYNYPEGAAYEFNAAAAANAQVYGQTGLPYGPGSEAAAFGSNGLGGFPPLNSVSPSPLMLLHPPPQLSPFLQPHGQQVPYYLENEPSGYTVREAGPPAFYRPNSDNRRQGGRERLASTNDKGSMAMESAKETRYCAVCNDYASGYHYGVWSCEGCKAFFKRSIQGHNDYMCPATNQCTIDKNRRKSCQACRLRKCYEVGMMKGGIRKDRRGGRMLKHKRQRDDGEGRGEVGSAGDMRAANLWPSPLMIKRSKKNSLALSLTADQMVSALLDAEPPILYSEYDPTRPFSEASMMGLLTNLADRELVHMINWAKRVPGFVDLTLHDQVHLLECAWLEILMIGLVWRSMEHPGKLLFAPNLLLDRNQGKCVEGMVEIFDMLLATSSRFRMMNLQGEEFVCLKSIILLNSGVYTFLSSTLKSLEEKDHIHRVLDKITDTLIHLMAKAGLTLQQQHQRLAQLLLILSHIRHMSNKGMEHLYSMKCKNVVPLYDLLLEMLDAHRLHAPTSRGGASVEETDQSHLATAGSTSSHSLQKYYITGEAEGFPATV
# Experimental: as §1, with “compounds. […]” for “compounds.”
# as §2, with “The plate was incubated at 30°C for approximately 2.5 h, and was then shaken briefly.” left out, “measurement. […]” for “measurement.”
compound,measurement,setting,value
O=c1c(-c2ccc(O)cc2)coc2cc(O)cc(O)c12 [genistein],maximum level of cytotoxicity (LDH release),MCF-7 cells [1],less than 2.5%
same,EC50,"MCF-7 cells [2]; Homo sapiens, MCF7, read-out: EC50 (proliferative effect)",831 nM
same,efficacy (maximum induction of cell growth) compared with 17β-estradiol,"MCF-7 cells [2]; MCF-7 cells, MTT",about half
same,Correction Factor,"S. cerevisiae BMA64/luc; 5% DMSO, 10^−4 M",3.19±0.42
same,Correction Factor,"S. cerevisiae BMA64/luc; 5% DMSO, 10^−6 M",2.59±0.95
same,Correction Factor,"S. cerevisiae BMA64/luc; 5% DMSO, 10^−8 M",3.59±1.22
same,Correction Factor,"S. cerevisiae BMA64/luc; 5% DMSO, 10^−10 M",2.20±0.05
same,Correction Factor,"S. cerevisiae BMA64/luc; 5% DMSO, 10^−12 M",2.59±0.45
same,Correction Factor,"S. cerevisiae BMA64/luc; 5% DMSO, 10^−14 M",3.88±1.32
same,Correction Factor,"S. cerevisiae BMA64/luc; 5% ethanol, 10^−4 M",1.59±0.17
same,Correction Factor,"S. cerevisiae BMA64/luc; 5% ethanol, 10^−6 M",1.27±0.42
same,Correction Factor,"S. cerevisiae BMA64/luc; 5% ethanol, 10^−8 M",1.18±0.24
same,Correction Factor,"S. cerevisiae BMA64/luc; 5% ethanol, 10^−10 M",1.07±0.04
same,Correction Factor,"S. cerevisiae BMA64/luc; 5% ethanol, 10^−12 M",1.30±0.22
same,Correction Factor,"S. cerevisiae BMA64/luc; 5% ethanol, 10^−14 M",1.58±0.23
CC(=O)[C@H]1CC[C@H]2[C@@H]3CCC4=CC(=O)CC[C@]4(C)[C@H]3CC[C@]12C [progesterone],luciferase activity (estrogenic response),human ERα,did not produce any detectable luciferase activity
CC/C(=C(\c1ccccc1)c1ccc(OCCN(C)C)cc1)c1ccccc1 [tamoxifen],dose-response of proliferation,"MCF-7 cells [2]; in the presence of 10^−12 M of 17β-estradiol, Fig. 2b",inverse dose-response curve
same,Correction Factor,"S. cerevisiae BMA64/luc; 5% DMSO, 10^−4 M",2.87±0.04
same,Correction Factor,"S. cerevisiae BMA64/luc; 5% DMSO, 10^−6 M",2.30±0.14
same,Correction Factor,"S. cerevisiae BMA64/luc; 5% DMSO, 10^−8 M",2.54±0.17
same,Correction Factor,"S. cerevisiae BMA64/luc; 5% DMSO, 10^−10 M",2.47±0.30
same,Correction Factor,"S. cerevisiae BMA64/luc; 5% DMSO, 10^−12 M",2.51±0.21
same,Correction Factor,"S. cerevisiae BMA64/luc; 5% DMSO, 10^−14 M",2.40±0.09
same,Correction Factor,"S. cerevisiae BMA64/luc; 5% ethanol, 10^−4 M",1.35±0.25
same,Correction Factor,"S. cerevisiae BMA64/luc; 5% ethanol, 10^−6 M",1.21±0.32
same,Correction Factor,"S. cerevisiae BMA64/luc; 5% ethanol, 10^−8 M",1.50±0.27
same,Correction Factor,"S. cerevisiae BMA64/luc; 5% ethanol, 10^−10 M",1.28±0.25
same,Correction Factor,"S. cerevisiae BMA64/luc; 5% ethanol, 10^−12 M",1.23±0.16
same,Correction Factor,"S. cerevisiae BMA64/luc; 5% ethanol, 10^−14 M",1.39±0.31

# From article PMC8164609 (Environmental Science and Pollution Research International, 2021)
